From US9738623B2, “Curcumin analogs” (The General Hospital Corporation, priority 2012, dated 2017)

Key:
[1] = biological target: T1, FAM-Aβ42 (Homo sapiens, UniProt P05067); test: SDS-PAGE of copper-induced crosslinking of FAM-Aβ42; type: biochemical; conditions: for intensity of monomeric Aβ bands relative to non-treated group: 4 hours incubation with copper sulfate and vitamin C
T1 construct: a Aβ42 labeled with fluorescent dye (FAM) (FAM-Aβ42); purchased American Peptide Company
Experimental: (§1) Samples were separated on 4-20% gradient Tris-glycine mini gels (Invitrogen). For FAM-Aβ42 gels, the images were acquired on IVIS®Spectrum (Caliper, Perkin Elmer) with excitation=465 nm, and emission=520 nm. For native Aβ42 gels, the gel was transferred to a nitrocellulose membrane in a cooled transferring buffer and the membrane was blocked at room temperature for 2 hours. After blocking, the membrane was incubated in a solution of 6E10 anti-Aβ primary antibody (1:2000 dilution, Covance, Dedham, Mass.) at 4° C. overnight. After washing with TBS buffer, the membrane was incubated with the secondary antibody for 2 hours at room temperature. Western Breeze Chemiluminescent kit (Invitrogen) was used to visualize the bands. The images were acquired using IVIS®Spectrum (Caliper, Perkin Elmer) using bioluminescence imaging setting. SeeBlue®plus2 (Invitrogen)(4-250KD) was used as a molecular weight marker.
(§2) All the samples used for SDS-PAGE gel and Western blot were prepared using the same procedure as described below. A 5 μL HFIP (hexafluoroisopropanol) solution (25 μM) of native Aβ42 or FAM-Aβ42 was added to a 1.5 mL eppendorf tube. After evaporating the organic solvent under vacuum, a 5 μL at DMSO or DMSO solution of CRANAD-17 (100 μM) was added to the tube, followed by the addition of 15 μL of Vitamin C solution in PBS (33.3 μM) and 5 μL of copper sulfate solution in PBS (12.5 μM). The resulting mixture was incubated at 37° C. for 4 hours, and was then subjected to gel electrophoresis. For dose dependency study, 5 μL of DMSO solution of different CRANAD-17 concentrations (25, 125, 250 μM) was added to obtain CRANAD-17/Aβ42 ratio equals 1:1, 5:1, and 10:1.

[2] = biological target: T2, Aβ42 (Homo sapiens, UniProt P05067); test: Western blot of copper-induced crosslinking of native Aβ42; type: biochemical; conditions: for attenuation of copper-induced crosslinking of native Aβ42: 4 hours incubation; for high molecular weight species on gel: copper treated
T2 construct: Synthetic amyloid-β peptide (1-40/42) was purchased from rPeptide; purchased rPeptide (Bogart, Ga.)
Experimental: as §1, §2
To this end, human Aβ42 was incubated with curcumin, CRANAD-3 and CRANAD-17 under the same conditions as above.

[3] = biological target: T3, human Aβ40 (Homo sapiens, UniProt P05067); test: Fluorescence spectra recording with Aβ40; type: binding; conditions: 500 nM compound, 250 nM Aβ
T3 construct: Synthetic amyloid-β peptide (1-40/42) was purchased from rPeptide; purchased rPeptide (Bogart, Ga.)
Experimental: (§3) The procedure described below was used for all experiments. To test the interactions of CRANAD-17 with Aβ species including Aβ42 monomers, Aβ40 monomers and [H13R]Aβ40 monomers, we utilize the following protocol. Step 1: 1.0 mL of PBS buffer was added to a quartz curvet as a blank control and its fluorescence was recorded with the same parameters as for CRANAD-17; Step 2: fluorescence of a CRANAD-17 solution (1 mL, 500 nM) was recorded with excitation at 480 nm and emission from 500 nm to 900 nm; Step 3: to the above CRANAD-17 solution, 10 μL of Aβ species (25 μM) was added to make the final Aβ species concentration of 250 nM, and the fluorescence spectrum from this solution was recorded. The final spectra from steps 2 and 3 were corrected using the blank control from step 1.

[4] = biological target: T4, [H13R]Aβ40 (Homo sapiens, UniProt P05067, H684R); test: Fluorescence spectra recording with [H13R]Aβ40; type: binding
T4 construct: [H13R]Aβ40 monomers; purchased American Peptide Company
Experimental: as §3
Conceivably, it is possible that the pyridyl ring on the other end of CRANAD-3 has a specific interaction with H13 and H14 of Aβ, which have aromatic imidazolium rings and are at the equal distance from K16 as VFF. To this end, the fluorescence intensities of CRANAD-3 with Aβ and H13R substituted Aβ ([H13R]Aβ), in which H13 is replaced by arginine (R) was compared.

[5] = biological target: T2, Aβ42; test: TEM measurement of Aβ42 aggregation; type: biochemical; conditions: 1.0 μM compound, 250 nM Aβ42, 37° C., 24 hours
Experimental: A 250 nM of Aβ42 in PBS solution was placed was at 37° C. for 24 hours. Next, 5 μL of this solution was dropped onto a Formvar coated TEM grid, followed by the addition of 2 μL of PTA contrast solution. After one minute, the liquid on the grid was carefully dried with a corner of a filter paper, and the resulting grid was further dried in the air for 2-5 minute. The TEM images were taken with JEOL 1011 electron microscope. Similar procedure was used for the incubated solution of CRANAD-l7 (1.0 μM) and Aβ42 (250 nM).

[6] = biological target: T2, Aβ42; test: Thioflavin T test of Aβ42 aggregation; type: biochemical; conditions: 10 μM compound, 37° C., 24 hours
Experimental: A 2.5 μM of Aβ42 solution in PBS was placed at 37° C. for 24 hours., and 10 μL of this solution was added to 1.0 ml PBS solution. The resulting solution was and then subjected to fluorescence spectrum recording with excitation=440 nm, and emission=470-800 nm (baseline recording). To this solution, 10 μL of thioflavin T (2.5 μM in PBS) was added and the spectrum was recorded. The quantification was conducted at λem=500 nm for Thioflavin T reading by subtracting the baseline reading. For CRANAD-17 (10 μM) incubation, the quantification was conducted by subtracting the readings at baseline and CRANAD-17 at λem=500 nm.

[7] = tested on: APP/PS1 mice; test: In vivo six-month treatment of APP/PS1 mice (NIR imaging, ELISA, plaque counting); conditions: 4 mg/kg i.p. twice a week, 6-month treatment
Experimental: Transgenic APP-PS1 mice and age-matched wild type mice were purchased from Jackson Laboratory. In vivo NIR imaging was recorded using the IVIS° Spectrum.
Ten APP/PS 1 mice (4-month) were divided into 2 groups (n=5/group), and one group was i.p. injected with 100 microliter of CRANAD-17 (4 mg/kg, formulated withl0% cremophor, 10% DMSO and 80% PBS) twice a week. After 6-month treatment, the two groups were subjected to NIR imaging with CRANAD-3 (ex=605, em=680 nm), and then were sacrificed. The brain of each mouse was taken, and dissected in two halves. One half brain was subjected to extraction and then to ELISA analysis. The other half brain was dissected into 25 micron slices, and then the slices were stained with Thioflavin S. Eight slices from hippocampus area of each mouse were subjected to amyloid beta plaque counting by ImageJ.

Compound	attenuation of copper-induced crosslinking ([1]; FAM-Aβ42/compound 1:1, 1:5, 1:10)	intensity of monomeric Aβ bands relative to non-treated group [1] [fold]	attenuation of copper-induced crosslinking of native Aβ42 ([2]; Western blot)	high molecular weight species on gel [2]	fluorescence property changes upon mixing with Aβ [3]	blue-shift with [H13R]Aβ [4]	fluorescence intensity with [H13R]Aβ compared to native Aβ [4]	attenuation effect compared to curcumin and CRANAD-3 ([2]; Western blot)	visible fibrils by TEM compared to control (Aβ42 treated with copper only) [5]	Thioflavin T fluorescence signal [6]	ELISA analysis of brain extraction, reduction [7] [%]	lower NIR signals than non-treated group (imaging with CRANAD-3) [7] [%]	plaque counting, reduction ([7]; hippocampus slices, Thioflavin S) [%]
c1ccc(-n2ccnc2)cc1 [4-(1H-imidazol-1-yl)benzene]	relatively small compared to CRANAD-17	–	–	–	–	–	–	–	–	–	–	–	–
COc1cc(/C=C/C(=O)CC(=O)/C=C/c2ccc(O)c(OC)c2)ccc1O [curcumin]	–	1.07	could attenuate crosslinking	no significant amount of high molecular weight species	–	–	–	–	–	–	–	–	–
CRANAD-17	–	1.92	could attenuate crosslinking	a certain amount of high molecular weight oligomeric species	intensity increase and blue-shift	no significant blue-shift	significantly lower fluorescence intensity	significantly higher attenuation effect	less visible fibrils	lower fluorescence signal	36	25	78
